Measurements as given in PubChem BioAssay AID330 (DTP/NCI, 2004).
Values joined by “and” are separate entries in the source; they are usually repeats but may differ in a detail not shown here. Equal entries are not always repeated. Inconclusive results and toxic doses are left out. How the source made its calls: active means survival T/C of 150% or more; inactive means T/C below 125% in these data.

Tested on: P388 leukemia ip, CD2F1 mice, survival T/C
Assay: NCI In Vivo Anticancer Drug Screen. Data for tumor model P388 Leukemia (intraperitoneal) in CD2F1 (CDF1) mice
Settings: endpoint: median survival time, higher = longer survival
Outline: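 Mice carrying the transplanted tumor received test compound or vehicle. Survival was recorded in each group, and the value is the treated-group measurement divided by that of the vehicle-treated control group.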

[1] = dose: 60.0 mg/kg/injection, schedule: Q01DX005 (ip), vehicle: saline with Tween-80
[2] = dose: 120.0 mg/kg/injection, schedule: Q01DX005 (ip), vehicle: saline with Tween-80
[3] = dose: 240.0 mg/kg/injection, schedule: Q01DX005 (ip), vehicle: saline with Tween-80
[4] = dose: 50.0 mg/kg/injection, schedule: Q01DX005 (ip), vehicle: Klucel (hydroxypropylcellulose) (HPC)
[5] = dose: 100.0 mg/kg/injection, schedule: Q01DX005 (ip), vehicle: Klucel (hydroxypropylcellulose) (HPC)
[6] = dose: 200.0 mg/kg/injection, schedule: Q01DX005 (ip), vehicle: Klucel (hydroxypropylcellulose) (HPC)
[7] = dose: 12.5 mg/kg/injection, schedule: Q01DX005 (ip), vehicle: saline
[8] = dose: 50.0 mg/kg/injection, schedule: Q01DX009 (ip), vehicle: saline with Tween-80

Measured: T/C

CCOC(=O)C1C(c2ccc(N(C)C)cc2)c2cc3c(cc2OC1(C)N1CCCC1)OCO3 (configuration not stated)
inactive: dose: 60.0 mg/kg/injection, schedule: Q01DX005 (ip), vehicle: Klucel (hydroxypropylcellulose) (HPC) 100 % of control | dose: 120.0 mg/kg/injection, schedule: Q01DX005 (ip), vehicle: Klucel (hydroxypropylcellulose) (HPC) 96 % of control | dose: 240.0 mg/kg/injection, schedule: Q01DX005 (ip), vehicle: Klucel (hydroxypropylcellulose) (HPC) 93 % of control

O=c1c2cncnc2sc2nc3ccccc3n12
inactive: [1] 95 % of control | [2] 94 % of control | [3] 88 % of control

NC(=O)Nc1cc(NC(N)=O)cc(N(CCCl)CCCl)c1
active: dose: 17.8 mg/kg/injection, schedule: Q04DX003 (ip), vehicle: water 177 % of control | dose: 20.0 mg/kg/injection, schedule: Q04DX003 (ip), vehicle: water 173 % of control | dose: 26.6 mg/kg/injection, schedule: Q04DX003 (ip), vehicle: water 206 % of control | dose: 40.0 mg/kg/injection, schedule: Q04DX003 (ip), vehicle: water 194 % of control and 215 % of control

C/C=C\C(/C=C/C)(C(=O)OCCN(C)C)C(/C=C\C)(/C=C/C)C(=O)OCCN(C)C (configuration not stated)
inactive: dose: 50.0 mg/kg/injection, schedule: Q01DX005 (ip), vehicle: saline with Tween-80 100 % of control | dose: 100.0 mg/kg/injection, schedule: Q01DX005 (ip), vehicle: saline with Tween-80 100 % of control | dose: 200.0 mg/kg/injection, schedule: Q01DX005 (ip), vehicle: saline with Tween-80 91 % of control

NC(c1ccccc1)c1cccs1 (configuration not stated)
inactive: [4] 100 % of control | [5] 105 % of control

CC(=NCCN=C(C)c1cc(C)cc(Br)c1O)c1cc(C)cc(Br)c1O
inactive: [4] 108 % of control | [5] 101 % of control | [6] 117 % of control

CC[N+](C)(C)c1ccc(C(=C2C=CC(=[N+](C)C)C=C2)c2ccc(N(C)C)cc2)cc1
inactive: dose: 3.12 mg/kg/injection, schedule: Q01DX005 (ip), vehicle: saline 100 % of control | dose: 6.25 mg/kg/injection, schedule: Q01DX005 (ip), vehicle: saline 100 % of control | [7] 104 % of control

CC1=C(O)C(=O)C=C2C1=CC=C1[C@@]2(C)CC[C@@]2(C)[C@@H]3C[C@](C)(C(=O)O)CC[C@]3(C)CC[C@]12C
inactive: dose: 0.19 mg/kg/injection, schedule: Q01DX009 (ip), vehicle: saline 101 % of control | dose: 0.39 mg/kg/injection, schedule: Q01DX009 (ip), vehicle: saline 101 % of control | dose: 0.78 mg/kg/injection, schedule: Q01DX009 (ip), vehicle: saline 97 % of control | dose: 1.56 mg/kg/injection, schedule: Q01DX009 (ip), vehicle: saline 87 % of control | dose: 3.12 mg/kg/injection, schedule: Q01DX009 (ip), vehicle: suspension in saline 91 % of control

Ic1ccc(N=Cc2cccs2)cc1
inactive: [8] 106 % of control | dose: 100.0 mg/kg/injection, schedule: Q01DX009 (ip), vehicle: saline with Tween-80 108 % of control | dose: 200.0 mg/kg/injection, schedule: Q01DX009 (ip), vehicle: saline with Tween-80 123 % of control | dose: 400.0 mg/kg/injection, schedule: Q01DX009 (ip), vehicle: saline with Tween-80 115 % of control

Cc1ccc(S(=O)(=O)NCCSSCCNS(=O)(=O)c2ccc(C)cc2)cc1
inactive: [4] 103 % of control | [5] 106 % of control | [6] 103 % of control

CC(=O)Nc1c(Cl)c(Cl)c2c(c1Cl)Cc1cc(Cl)c(Cl)cc1-2
inactive: dose: 12.5 mg/kg/injection, schedule: Q01DX009 (ip), vehicle: saline with Tween-80 100 % of control | dose: 25.0 mg/kg/injection, schedule: Q01DX009 (ip), vehicle: saline with Tween-80 100 % of control | [8] 95 % of control | dose: 100.0 mg/kg/injection, schedule: Q04DX003 (ip), vehicle: saline with Tween-80 109 % of control | dose: 200.0 mg/kg/injection, schedule: Q04DX003 (ip), vehicle: saline with Tween-80 100 % of control | dose: 400.0 mg/kg/injection, schedule: Q04DX003 (ip), vehicle: saline with Tween-80 104 % of control

c1cc2ccc1CCc1ccc(cc1)CC2
inactive: dose: 100.0 mg/kg/injection, schedule: Q01DX001 (ip), vehicle: saline sonified 90 % of control | dose: 200.0 mg/kg/injection, schedule: Q01DX001 (ip), vehicle: saline sonified 100 % of control | dose: 400.0 mg/kg/injection, schedule: Q01DX001 (ip), vehicle: saline sonified 100 % of control

Nc1nc(Cl)nc2c1ncn2C1OC(CO)C(O)C1F (configuration not stated)
active: dose: 200.0 mg/kg/injection, schedule: Q01DX005 (ip), vehicle: saline 159 % of control
inactive: [7] 122 % of control

COC(=O)C1(CC(=O)c2ccccn2)NC(=S)NC(=O)C1C#N (configuration not stated)
inactive: [1] 100 % of control | [2] 97 % of control | [3] 97 % of control
